Patent US20150094474A1, “AGRICULTURAL CHEMICALS” (Redx Pharma Ltd., priority 2012, published 2015)

Legend:
barley = assay: Herbicidal bioassay, barley (% necrosis); type: in vivo
Method in brief: (§1)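 Scoring of % necrosis followed EPPO guideline PP1/135 at specified growth intervals, five replicates per species and treatment. Plants at the 2-4 true leaf stage received Potter-tower sprays of DMSO-diluted compounds across six levels from 0.0001% to 0.05%, with water and DMSO controls.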

peas = assay: Herbicidal bioassay, peas (% necrosis); type: in vivo
Method in brief: as §1

`COC(=O)c1ccc(CNS(C)(=O)=O)cc1S(=O)(=O)NC(=O)Nc1nc(OC)cc(OC)n1` [Mesosulfuron (6), Mesosulfuron methyl ester, reference compound] was tested, and the “Sum of % necrosis in barley” value (barley; Dose 0.000001, Day 0) was “C (less than 50% necrosis)”, the “Sum of % necrosis in barley” value (barley; Dose 0.000001, Day 1) was “C (less than 50% necrosis)” and the “Sum of % necrosis in barley” value (barley; Dose 0.000001, Day 3) was “C (less than 50% necrosis)”. For the same compound, the “Sum of % necrosis in barley” value (barley; Dose 0.000001, Day 7) was “C (less than 50% necrosis)”, the “Sum of % necrosis in barley” value (barley; Dose 0.000001, Day 10) was “C (less than 50% necrosis)” and the “Sum of % necrosis in barley” value (barley; Dose 0.000001, Day 14) was “C (less than 50% necrosis)”. The “Sum of % necrosis in barley” value (barley; Dose 0.000005, Day 0) was “C (less than 50% necrosis)”, the “Sum of % necrosis in barley” value (barley; Dose 0.000005, Day 1) was “C (less than 50% necrosis)” and the “Sum of % necrosis in barley” value (barley; Dose 0.000005, Day 3) was “C (less than 50% necrosis)”. For the same compound, the “Sum of % necrosis in barley” value (barley; Dose 0.000005, Day 7) was “C (less than 50% necrosis)”, the “Sum of % necrosis in barley” value (barley; Dose 0.000005, Day 10) was “C (less than 50% necrosis)” and the “Sum of % necrosis in barley” value (barley; Dose 0.000005, Day 14) was “C (less than 50% necrosis)”. For the same compound, the “Sum of % necrosis in barley” value (barley; Dose 0.00001, Day 0) was “C (less than 50% necrosis)”, the “Sum of % necrosis in barley” value (barley; Dose 0.00001, Day 1) was “C (less than 50% necrosis)” and the “Sum of % necrosis in barley” value (barley; Dose 0.00001, Day 3) was “C (less than 50% necrosis)”. For the same compound, the “Sum of % necrosis in barley” value (barley; Dose 0.00001, Day 7) was “C (less than 50% necrosis)”, the “Sum of % necrosis in barley” value (barley; Dose 0.00001, Day 10) was “C (less than 50% necrosis)” and the “Sum of % necrosis in barley” value (barley; Dose 0.00001, Day 14) was “C (less than 50% necrosis)”. For the same compound, the “Sum of % necrosis in barley” value (barley; Dose 0.00005, Day 0) was “C (less than 50% necrosis)”, the “Sum of % necrosis in barley” value (barley; Dose 0.00005, Day 1) was “C (less than 50% necrosis)” and the “Sum of % necrosis in barley” value (barley; Dose 0.00005, Day 3) was “C (less than 50% necrosis)”. For the same compound, the “Sum of % necrosis in barley” value (barley; Dose 0.00005, Day 7) was “C (less than 50% necrosis)”, the “Sum of % necrosis in barley” value (barley; Dose 0.00005, Day 10) was “C (less than 50% necrosis)” and the “Sum of % necrosis in barley” value (barley; Dose 0.00005, Day 14) was “C (less than 50% necrosis)”. The “Sum of % necrosis in barley” value (barley; Dose 0.0001, Day 0) was “C (less than 50% necrosis)”, the “Sum of % necrosis in barley” value (barley; Dose 0.0001, Day 1) was “C (less than 50% necrosis)” and the “Sum of % necrosis in barley” value (barley; Dose 0.0001, Day 3) was “C (less than 50% necrosis)”. The “Sum of % necrosis in barley” value (barley; Dose 0.0001, Day 7) was “C (less than 50% necrosis)”, the “Sum of % necrosis in barley” value (barley; Dose 0.0001, Day 10) was “B (50%-80% necrosis)” and the “Sum of % necrosis in barley” value (barley; Dose 0.0001, Day 14) was “B (50%-80% necrosis)”. The “Sum of % necrosis in barley” value (barley; Dose 0.0005, Day 0) was “C (less than 50% necrosis)”, the “Sum of % necrosis in barley” value (barley; Dose 0.0005, Day 1) was “C (less than 50% necrosis)” and the “Sum of % necrosis in barley” value (barley; Dose 0.0005, Day 3) was “C (less than 50% necrosis)”. For the same compound, the “Sum of % necrosis in barley” value (barley; Dose 0.0005, Day 7) was “C (less than 50% necrosis)”, the “Sum of % necrosis in barley” value (barley; Dose 0.0005, Day 10) was “B (50%-80% necrosis)” and the “Sum of % necrosis in barley” value (barley; Dose 0.0005, Day 14) was “B (50%-80% necrosis)”. For the same compound, the “Sum of % necrosis in Pea” value (peas; Dose 0.000001, Day 0) was “C (less than 50% necrosis)”, the “Sum of % necrosis in Pea” value (peas; Dose 0.000001, Day 1) was “C (less than 50% necrosis)” and the “Sum of % necrosis in Pea” value (peas; Dose 0.000001, Day 3) was “A (over 80% necrosis)”. For the same compound, the “Sum of % necrosis in Pea” value (peas; Dose 0.000001, Day 7) was “A (over 80% necrosis)”, the “Sum of % necrosis in Pea” value (peas; Dose 0.000001, Day 10) was “A (over 80% necrosis)” and the “Sum of % necrosis in Pea” value (peas; Dose 0.000001, Day 14) was “A (over 80% necrosis)”. For the same compound, the “Sum of % necrosis in Pea” value (peas; Dose 0.000005, Day 0) was “C (less than 50% necrosis)”, the “Sum of % necrosis in Pea” value (peas; Dose 0.000005, Day 1) was “C (less than 50% necrosis)” and the “Sum of % necrosis in Pea” value (peas; Dose 0.000005, Day 3) was “B (50%-80% necrosis)”. For the same compound, the “Sum of % necrosis in Pea” value (peas; Dose 0.000005, Day 7) was “A (over 80% necrosis)”, the “Sum of % necrosis in Pea” value (peas; Dose 0.000005, Day 10) was “A (over 80% necrosis)” and the “Sum of % necrosis in Pea” value (peas; Dose 0.000005, Day 14) was “A (over 80% necrosis)”. For the same compound, the “Sum of % necrosis in Pea” value (peas; Dose 0.00001, Day 0) was “C (less than 50% necrosis)”, the “Sum of % necrosis in Pea” value (peas; Dose 0.00001, Day 1) was “C (less than 50% necrosis)” and the “Sum of % necrosis in Pea” value (peas; Dose 0.00001, Day 3) was “A (over 80% necrosis)”. The “Sum of % necrosis in Pea” value (peas; Dose 0.00001, Day 7) was “A (over 80% necrosis)”, the “Sum of % necrosis in Pea” value (peas; Dose 0.00001, Day 10) was “A (over 80% necrosis)” and the “Sum of % necrosis in Pea” value (peas; Dose 0.00001, Day 14) was “A (over 80% necrosis)”. For the same compound, the “Sum of % necrosis in Pea” value (peas; Dose 0.00005, Day 0) was “C (less than 50% necrosis)”, the “Sum of % necrosis in Pea” value (peas; Dose 0.00005, Day 1) was “C (less than 50% necrosis)” and the “Sum of % necrosis in Pea” value (peas; Dose 0.00005, Day 3) was “B (50%-80% necrosis)”. For the same compound, the “Sum of % necrosis in Pea” value (peas; Dose 0.00005, Day 7) was “A (over 80% necrosis)”, the “Sum of % necrosis in Pea” value (peas; Dose 0.00005, Day 10) was “A (over 80% necrosis)” and the “Sum of % necrosis in Pea” value (peas; Dose 0.00005, Day 14) was “A (over 80% necrosis)”. For the same compound, the “Sum of % necrosis in Pea” value (peas; Dose 0.0001, Day 0) was “C (less than 50% necrosis)”, the “Sum of % necrosis in Pea” value (peas; Dose 0.0001, Day 1) was “C (less than 50% necrosis)” and the “Sum of % necrosis in Pea” value (peas; Dose 0.0001, Day 3) was “A (over 80% necrosis)”. For the same compound, the “Sum of % necrosis in Pea” value (peas; Dose 0.0001, Day 7) was “A (over 80% necrosis)”, the “Sum of % necrosis in Pea” value (peas; Dose 0.0001, Day 10) was “A (over 80% necrosis)” and the “Sum of % necrosis in Pea” value (peas; Dose 0.0001, Day 14) was “A (over 80% necrosis)”. The “Sum of % necrosis in Pea” value (peas; Dose 0.0005, Day 0) was “C (less than 50% necrosis)”, the “Sum of % necrosis in Pea” value (peas; Dose 0.0005, Day 1) was “C (less than 50% necrosis)” and the “Sum of % necrosis in Pea” value (peas; Dose 0.0005, Day 3) was “C (less than 50% necrosis)”. The “Sum of % necrosis in Pea” value (peas; Dose 0.0005, Day 7) was “A (over 80% necrosis)”, the “Sum of % necrosis in Pea” value (peas; Dose 0.0005, Day 10) was “A (over 80% necrosis)” and the “Sum of % necrosis in Pea” value (peas; Dose 0.0005, Day 14) was “A (over 80% necrosis)”.
